Measurements taken from ChEMBL document CHEMBL1201862, “PubChem BioAssay data set” (2004).
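Five concentrations, 48 hours, 96-well plates. GI50 is the concentration that inhibits growth by half.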 Activity calls are given as the source filed them. No stated cut-off is given here; in the data, active = GI50 up to about 1.1 µM and inactive = higher. Where a SMILES comes first, the peptide text is derived from it. The star is where a group is joined. Boc = CC(C)(C)OC(=O)*

Assays:
Assay in all cases: NCI-60 cell line screen, 48 h
SNB-75 = system: SNB-75
CAKI-1 = system: CAKI-1
786-0 = system: 786-0
SN12C = system: SN12C
SNB-19 = system: SNB-19
MCF7 = system: MCF7
CCRF-CEM = system: CCRF-CEM
SF-268 = system: SF-268
OVCAR-4 = system: OVCAR-4
UACC-257 = system: UACC-257
COLO 205 = system: COLO 205
NCI-H522 = system: NCI-H522
BT-549 = system: BT-549
HOP-62 = system: HOP-62
EKVX = system: EKVX
A498 = system: A498
RPMI-8226 = system: RPMI-8226
LOX IMVI = system: LOX IMVI
PC-3 = system: PC-3
HCC 2998 = system: HCC 2998

Measured: GI50

CCOC(=O)Cn1c(C(F)(F)F)nc2nc(Cl)c(Cl)nc21
inactive: SNB-75 55.2 µM | CAKI-1 3.12 µM | 786-0 > 76.9 µM | SN12C 49.4 µM | SNB-19 34.4 µM | MCF7 23.3 µM | CCRF-CEM 20 µM | SF-268 34 µM | OVCAR-4 15.2 µM | UACC-257 19.6 µM | COLO 205 40 µM | NCI-H522 20.8 µM | BT-549 54.8 µM | HOP-62 19.5 µM | EKVX 10.5 µM | A498 25.5 µM | RPMI-8226 6.58 µM | LOX IMVI 38.1 µM | PC-3 32.2 µM

Cc1c2c(n3c(nc4ccccc43)c1C#N)N(c1ccc(F)cc1)CC2
inactive: SNB-75 > 100 µM | CAKI-1 > 100 µM | 786-0 > 100 µM | SN12C > 100 µM | SNB-19 > 100 µM | MCF7 > 100 µM | CCRF-CEM > 100 µM | SF-268 > 100 µM | OVCAR-4 41.4 µM | UACC-257 > 100 µM | COLO 205 > 100 µM | NCI-H522 > 100 µM | BT-549 > 100 µM | HOP-62 > 100 µM | A498 > 100 µM | LOX IMVI > 100 µM | PC-3 > 100 µM | HCC 2998 > 100 µM

CN(C)c1ccc(/C=N/c2nc3cc4sc(/N=C/c5ccc(N(C)C)cc5)nc4cc3s2)cc1
inactive: SNB-75 63.2 µM | CAKI-1 21.3 µM | 786-0 49.7 µM | SN12C 83.9 µM | SNB-19 77.6 µM | MCF7 12.6 µM | CCRF-CEM 6.3 µM | SF-268 45 µM | OVCAR-4 > 100 µM | UACC-257 > 100 µM | COLO 205 4.75 µM | NCI-H522 9.98 µM | BT-549 71 µM | HOP-62 55.7 µM | EKVX > 100 µM | A498 26.7 µM | RPMI-8226 19.1 µM | LOX IMVI 47.8 µM | PC-3 > 100 µM

O=C(Nc1sccc1S(=O)(=O)c1ccc(Cl)cc1)c1ccccc1
inactive: SNB-75 98.6 µM | CAKI-1 > 100 µM | 786-0 > 100 µM | SN12C > 100 µM | SNB-19 > 100 µM | MCF7 > 100 µM | CCRF-CEM > 100 µM | SF-268 > 100 µM | OVCAR-4 45 µM | UACC-257 85.1 µM | COLO 205 > 100 µM | NCI-H522 > 100 µM | BT-549 > 100 µM | HOP-62 87.9 µM | EKVX > 100 µM | A498 > 100 µM | RPMI-8226 > 100 µM | LOX IMVI > 100 µM | PC-3 > 100 µM

Cn1c(=O)oc2cc(C(=S)N3CCC(Cc4ccccc4)CC3)ccc21
inactive: SNB-75 55.6 µM | CAKI-1 > 100 µM | 786-0 > 100 µM | SN12C > 100 µM | SNB-19 > 100 µM | MCF7 > 100 µM | CCRF-CEM > 100 µM | SF-268 > 100 µM | UACC-257 > 100 µM | COLO 205 > 100 µM | BT-549 > 100 µM | HOP-62 > 100 µM | EKVX > 100 µM | A498 > 100 µM | RPMI-8226 62.1 µM | LOX IMVI > 100 µM | PC-3 > 100 µM

COc1ccc(/C=C(/C#N)C(N)=O)c(OC)c1
inactive: SNB-75 72.1 µM | CAKI-1 > 100 µM | 786-0 > 100 µM | SN12C > 100 µM | SNB-19 > 100 µM | MCF7 44 µM | CCRF-CEM 26.8 µM | SF-268 > 100 µM | OVCAR-4 > 100 µM | UACC-257 89.5 µM | COLO 205 > 100 µM | NCI-H522 > 100 µM | BT-549 > 100 µM | HOP-62 > 100 µM | EKVX > 100 µM | A498 10.8 µM | RPMI-8226 > 100 µM | LOX IMVI > 100 µM | PC-3 97.3 µM

COc1ccc(/C=C2\N=C(c3ccccc3)OC2=O)cc1OC(C)=O
inactive: SNB-75 52.5 µM | 786-0 56 µM | SN12C > 100 µM | SNB-19 > 100 µM | MCF7 53.2 µM | CCRF-CEM 27.7 µM | SF-268 27.3 µM | OVCAR-4 63.1 µM | UACC-257 > 100 µM | COLO 205 > 100 µM | BT-549 > 100 µM | HOP-62 94.2 µM | A498 > 100 µM | RPMI-8226 32 µM | LOX IMVI 51.3 µM | PC-3 31.1 µM | HCC 2998 93.5 µM

Cc1cccc(NC(=S)Nc2ccc(Cl)cc2)n1
inactive: SNB-75 > 100 µM | CAKI-1 > 100 µM | 786-0 > 100 µM | SNB-19 > 100 µM | MCF7 > 100 µM | CCRF-CEM > 100 µM | SF-268 > 100 µM | OVCAR-4 > 100 µM | UACC-257 > 100 µM | COLO 205 > 100 µM | BT-549 > 100 µM | HOP-62 > 100 µM | EKVX > 100 µM | A498 > 100 µM | RPMI-8226 > 100 µM | LOX IMVI > 100 µM | PC-3 > 100 µM | HCC 2998 > 100 µM

COc1ccc2c3c1O[C@H]1C(=O)C=CC4(n5[nH]c(=O)n(-c6ccccc6)c5=O)C(C2)N(C)CCC314 (stereo partly drawn)
inactive: CAKI-1 > 100 µM | 786-0 > 100 µM | SN12C > 100 µM | SNB-19 > 100 µM | MCF7 > 100 µM | CCRF-CEM > 100 µM | SF-268 > 100 µM | OVCAR-4 > 100 µM | COLO 205 > 100 µM | NCI-H522 > 100 µM | BT-549 > 100 µM | HOP-62 > 100 µM | EKVX > 100 µM | A498 > 100 µM | RPMI-8226 > 100 µM | LOX IMVI > 100 µM | PC-3 > 100 µM

C=C(Cl)CN1c2ccccc2C=Cc2ccccc21
inactive: SNB-75 24.7 µM | CAKI-1 10 µM | 786-0 14.2 µM | SN12C 20.6 µM | SNB-19 22.5 µM | MCF7 15.2 µM | SF-268 15.7 µM | OVCAR-4 21.3 µM | UACC-257 16.3 µM | COLO 205 12.8 µM | NCI-H522 21.6 µM | BT-549 46 µM | HOP-62 16.6 µM | EKVX 19.1 µM | A498 34.7 µM | LOX IMVI 11 µM | PC-3 9.12 µM | HCC 2998 17.6 µM

N=C(N)c1ccc(C(NC(=O)CNS(=O)(=O)c2ccc3ccccc3c2)P(=O)(Oc2ccccc2)Oc2ccccc2)cc1 (stereo not drawn)
inactive: SNB-75 27 µM | CAKI-1 67.5 µM | 786-0 36.8 µM | SN12C 27.7 µM | SNB-19 47 µM | MCF7 54 µM | CCRF-CEM 29.8 µM | SF-268 29.8 µM | OVCAR-4 > 100 µM | UACC-257 > 100 µM | COLO 205 > 100 µM | NCI-H522 41.2 µM | BT-549 19.2 µM | HOP-62 51.9 µM | RPMI-8226 46.3 µM | LOX IMVI 28.1 µM | PC-3 37.8 µM | HCC 2998 > 100 µM

C(CCCCc1nnc(N2CCOCC2)o1)CCCc1nnc(N2CCOCC2)o1
inactive: SNB-75 > 100 µM | CAKI-1 > 100 µM | 786-0 > 100 µM | SN12C > 100 µM | SNB-19 > 100 µM | MCF7 > 100 µM | CCRF-CEM > 100 µM | OVCAR-4 > 100 µM | UACC-257 > 100 µM | COLO 205 > 100 µM | BT-549 > 100 µM | HOP-62 > 100 µM | EKVX > 100 µM | A498 > 100 µM | LOX IMVI > 100 µM | PC-3 > 100 µM

Oc1ccc(-c2nc(-c3cccnc3)c(-c3ccc(Cl)cc3)[nH]2)cc1
inactive: SNB-75 7.46 µM | CAKI-1 17.9 µM | 786-0 13.6 µM | SN12C 15.8 µM | SNB-19 16.5 µM | MCF7 11.3 µM | CCRF-CEM 1.79 µM | SF-268 14.6 µM | OVCAR-4 11.2 µM | UACC-257 16.1 µM | COLO 205 10.3 µM | NCI-H522 10.3 µM | BT-549 15.3 µM | HOP-62 16.9 µM | EKVX 13.2 µM | RPMI-8226 3.47 µM | LOX IMVI 6.89 µM | PC-3 5.58 µM | HCC 2998 18.8 µM

COC(=O)C(Cc1c[nH]c2ccccc12)NC(=O)C(Cc1c[nH]c2ccccc12)NC(=O)C(Cc1c[nH]c2ccccc12)NC(=O)C(Cc1c[nH]c2ccccc12)NC(=O)C(Cc1c[nH]c2ccccc12)NC(=O)C(Cc1c[nH]c2ccccc12)NC(=O)C(Cc1c[nH]c2ccccc12)NC(=O)OC(C)(C)C (stereo not drawn) (Boc-WWWWWWW-OMe; configuration not given here)
inactive: SNB-75 17.3 µM | CAKI-1 > 100 µM | 786-0 26.3 µM | SN12C 62.2 µM | SNB-19 47.8 µM | MCF7 59.4 µM | CCRF-CEM 92.7 µM | SF-268 > 100 µM | OVCAR-4 > 100 µM | UACC-257 67.5 µM | NCI-H522 54.6 µM | BT-549 > 100 µM | HOP-62 > 100 µM | RPMI-8226 46.7 µM | LOX IMVI 84.9 µM | PC-3 > 100 µM | HCC 2998 > 100 µM

C[C@@H](Oc1ccc(Oc2cnc3ccc(Cl)cc3n2)cc1)C(=O)O [R(+)XK469]
inactive: SNB-75 > 100 µM | CAKI-1 > 100 µM | 786-0 > 100 µM | SN12C > 100 µM | SNB-19 > 100 µM | MCF7 39 µM | CCRF-CEM 97.3 µM | SF-268 > 100 µM | OVCAR-4 > 100 µM | UACC-257 > 100 µM | COLO 205 59.3 µM | NCI-H522 19.1 µM | BT-549 > 100 µM | HOP-62 72.8 µM | A498 > 100 µM | LOX IMVI > 100 µM | PC-3 > 100 µM
